# Results reported in patent US20200037600A1, “MESOIONIC IMIDAZOPYRIDINES AS INSECTICIDES” (Bayer Aktiengesellschaft, priority 2017, published 2020).
# Where two headings read alike, the source gives them in different places.
# Tests used:
# Phaedon cochleariae = Phaedon cochleariae spray test; format: in vivo; conditions: foliar, 168 h, application rate 500 g/ha, larvae on Chinese cabbage leaf discs, after 7 days, read-out: efficacy
# Experimental: Phaedon cochleariae—Spray Test
# (§1) Solvent: 78.0 parts by weight of acetone • • 1.5 parts by weight of dimethylformamide
# (§2) Emulsifier: alkylaryl polyglycol ether
# (§3) To produce a suitable active compound formulation, 1 part by weight of active compound is dissolved with the specified parts by weight of solvent and made up to the desired concentration with water containing an emulsifier concentration of 1000 ppm. To produce further test concentrations, the formulation is diluted with emulsifier-containing water.
# Discs of Chinese cabbage leaves (Brassica pekinensis) are sprayed with an active compound formulation of the desired concentration and, after drying, populated with larvae of the mustard beetle (Phaedon cochleariae).
# After 7 days, the efficacy in % is determined. 100% means that all the beetle larvae have been killed; 0% means that no beetle larvae have been killed.
# Spodoptera frugiperda = Spodoptera frugiperda spray test; format: in vivo; conditions: application rate 500 g/ha; caterpillars on maize leaf discs; after 7 days
# Experimental: Spodoptera frugiperda—Spray Test
# as §1, §2, §3
# Leaf discs of maize (Zea mays) are sprayed with an active compound formulation of the desired concentration and, after drying, populated with caterpillars of the fall armyworm (Spodoptera frugiperda).
# After 7 days, the efficacy in % is determined. 100% means that all the caterpillars have been killed; 0% means that no caterpillar has been killed.
# Myzus persicae [1] = test: Myzus persicae oral test; format: in vivo; conditions: after 5 days; for pest or weed control at 4 ppm: Myzus persicae, po, 120 h, read-out: efficacy
# Experimental: Solvent: 100 parts by weight of acetone
# To produce a suitable active compound formulation, 1 part by weight of active compound is dissolved with the stated parts by weight of solvent and made up to the desired concentration with water.
# 50 μl of the active compound formulation are transferred into microtitre plates and made up to a final volume of 200 μl with 150 μl of IPL41 insect medium (33%+15% sugar). Subsequently, the plates are sealed with parafilm, which a mixed population of green peach aphids (Myzus persicae) within a second microtitre plate is able to puncture and imbibe the solution.
# (§4) After 5 days, the efficacy in % is determined. 100% means that all the aphids have been killed; 0% means that no aphids have been killed.
# Lucilia cuprina = Lucilia cuprina test; format: in vivo; conditions: application rate 100 ppm; L1 larvae; after 2 days
# Experimental: (§5) Solvent: dimethyl sulfoxide
# (§6) To produce a suitable active compound formulation, 10 mg of active compound are mixed with 0.5 ml of dimethyl sulfoxide, and the concentrate is diluted with water to the desired concentration.
# About 20 L1 larvae of the Australian sheep blowfly (Lucilia cuprina) are transferred into a test vessel containing minced horsemeat and the active compound formulation of the desired concentration.
# After 2 days, the kill in % is determined. 100% means that all the larvae have been killed; 0% means that no larvae have been killed.
# Diabrotica balteata = Diabrotica balteata spray test; format: in vivo; conditions: application rate 160 μg/well, beetle larvae on germinated wheat grains, after 7 days; for pest or weed control at 160 µg/disc, 160 µg/well: Diabrotica balteata, 168 h, read-out: efficacy
# Experimental: Diabrotica balteata—Spray Test
# (§7) Solvent: 78 parts by weight of acetone • • 1.5 parts by weight of dimethylformamide
# as §2, §3
# Pre-swollen wheat grains (Triticum aestivum) are incubated in a multiwell plate filled with agar and a little water for one day (5 seed grains per well). The germinated wheat grains are sprayed with an active compound preparation of the desired concentration. Subsequently, each cavity is infected with 10-20 beetle larvae of Diabrotica balteata.
# After 7 days, the efficacy in % is determined. 100% means that all maize plants have grown as in the untreated, uninfected control; 0% means that no maize plant has grown.
# Myzus persicae [2] = test: Myzus persicae spray test; format: in vivo; conditions: application rate 500 g/ha, Chinese cabbage leaf discs, after 5 days; for pest or weed control at 500 g/ha: Myzus persicae, foliar, 120 h, read-out: efficacy
# Experimental: Myzus persicae—Spray Test
# as §7, §2, §3
# Discs of Chinese cabbage leaves (Brassica pekinensis) infested by all stages of the green peach aphid (Myzus persicae) are sprayed with an active compound formulation of the desired concentration.
# as §4
# Ctenocephalides felis [3] = test: Ctenocephalides felis in vitro contact test with adult cat fleas; format: in vivo; conditions: application rate 5 μg/cm^2 (=500 g/ha), after 48 h
# Experimental: Ctenocephalides felis—In Vitro Contact Tests with Adult Cat Fleas
# For the coating of the test tubes, 9 mg of active compound are first dissolved in 1 ml of acetone p.a. and then diluted to the desired concentration with acetone p.a. 250 μl of the solution are distributed homogeneously on the inner walls and the base of a 25 ml glass tube by turning and rocking on an orbital shaker (rocking rotation at 30 rpm for 2 h). With 900 ppm of active compound solution and internal surface area 44.7 cm^2, given homogeneous distribution, an area-based dose of 5 μg/cm^2 is achieved.
# After the solvent has evaporated off, the tubes are populated with 5-10 adult cat fleas (Ctenocephalides felis), sealed with a perforated plastic lid and incubated in a horizontal position at room temperature and ambient humidity. After 48 h, efficacy is determined. To this end, the tubes are stood upright and the fleas are knocked to the base of the tube. Fleas which remain motionless at the base or move in an uncoordinated manner are considered to be dead or moribund.
# 100% efficacy means that all the fleas were dead or moribund. 0% efficacy means that no fleas were harmed.
# Ctenocephalides felis [4] = test: Ctenocephalides felis oral test; format: in vivo; conditions: application rate 100 ppm in citrated cattle blood; adult cat fleas; after 2 days
# Experimental: Ctenocephalides felis—Oral Test
# as §5
# To produce a suitable active compound formulation, 10 mg of active compound are mixed with 0.5 ml of dimethyl sulfoxide. Dilution with citrated cattle blood gives the desired concentration.
# About 20 unfed adult cat fleas (Ctenocephalides felis) are placed into a chamber which is closed at the top and bottom with gauze. A metal cylinder whose bottom end is closed with parafilm is placed onto the chamber. The cylinder contains the blood/active compound formulation, which can be imbibed by the fleas through the parafilm membrane.
# After 2 days, the kill in % is determined. 100% means that all of the fleas have been killed; 0% means that none of the fleas have been killed.
# Musca domestica = Musca domestica test; format: in vivo; conditions: application rate 100 ppm; adult houseflies; after 2 days
# Experimental: as §5, §6
# Vessels containing a sponge treated with sugar solution and the active compound formulation of the desired concentration are populated with 10 adult houseflies (Musca domestica).
# After 2 days, the kill in % is determined. 100% means that all of the flies have been killed; 0% means that none of the flies have been killed.
# [5] = log P by HPLC (EEC directive 79/831 Annex V.A8); format: physicochemical
# Experimental: The log P values reported in the tables and preparation examples above were determined in accordance with EEC directive 79/831 Annex V.A8 by HPLC (High Performance Liquid Chromatography) using a reversed-phase column (C18). Temperature 43° C. The calibration is effected with unbranched alkan-2-ones (having 3 to 16 carbon atoms), for which the log P values are known.
SMILES,pest or weed control at 500 g/ha (Phaedon cochleariae) [%],pest or weed control at 4 ppm (Myzus persicae [1]; application rate 4 ppm) [%],"pest or weed control at 160 µg/disc, 160 µg/well (Diabrotica balteata) [%]",pest or weed control at 500 g/ha (Myzus persicae [2]) [%],efficacy (kill in %) (Musca domestica) [%],efficacy (Myzus persicae [1]; application rate 4 ppm) [%],other results
Cc1ccc[n+]2c([O-])c(C(=O)C(F)(F)Cl)n(Cc3cnc(Cl)s3)c12 [Example I-060],100,,,,,,efficacy (Spodoptera frugiperda): 100%
Cc1ccc[n+]2c([O-])c(C(=O)C(F)(F)C(F)F)n(Cc3cnc(Cl)s3)c12 [Example I-063],100,100,,,,,efficacy (Spodoptera frugiperda): 100%
COC(=O)C(=O)c1c([O-])[n+]2cccc(C)c2n1Cc1cnc(Cl)s1 [Example I-045],100,100,100,100,,,efficacy (kill in %) (Lucilia cuprina): 90%
O=C(c1c([O-])[n+]2ccccc2n1Cc1cnc(Cl)s1)C(F)(F)F [Example I-007],,,,,90,100,efficacy (Ctenocephalides felis [3]): 100%; efficacy (kill in %) (Ctenocephalides felis [4]): 95%; efficacy (kill in %) (Lucilia cuprina): 85%; efficacy (Diabrotica balteata): 100%; efficacy (Myzus persicae [1]; application rate 20 ppm): 100%; efficacy (Myzus persicae [2]): 100%
Cc1ccc[n+]2c([O-])c(C(=O)C(=O)OCC3CCC3)n(Cc3cnc(Cl)s3)c12 [Example I-046],100,100,100,90,,,efficacy (Spodoptera frugiperda): 83%
O=C(c1cccs1)c1c([O-])[n+]2ccccc2n1Cc1cnc(Cl)s1 [Example I-026],,,,,,100,efficacy (kill in %) (Lucilia cuprina): 100%; efficacy (Diabrotica balteata): 100%
O=C(c1cccc(C(F)(F)F)c1)c1c([O-])[n+]2ccccc2n1Cc1cnc(Cl)s1 [Example I-023],,,,,,100,efficacy (kill in %) (Lucilia cuprina): 95%; efficacy (Diabrotica balteata): 100%; efficacy (Myzus persicae [2]): 90%
CCOC(=O)C(=O)c1c([O-])[n+]2cccc(C)c2n1Cc1cnc(Cl)s1 [Example I-033],,100,100,90,100,,efficacy (Ctenocephalides felis [3]): 100%; efficacy (kill in %) (Ctenocephalides felis [4]): 95%
"CC(C)NC(=O)c1c([O-])[n+]2ccccc2n1Cc1cnc(Cl)s1 [Example I-025, 1-[(2-Chlorothiazol-5-yl)methyl]-2-(isopropylcarbamoyl)imidazo[1,2-a]pyridin-4-ium-3-olate]",,100,,,100,,chromatographic logP [5]: 1.66
Cc1ccc[n+]2c([O-])c(C(=O)C(F)F)n(Cc3cnc(Cl)s3)c12 [Example I-061],100,100,,,,,efficacy (Spodoptera frugiperda): 100%
"O=C(OCC1CC1)C(=O)c1c([O-])[n+]2ccccc2n1Cc1cnc(Cl)s1 [Example I-034, 1-[(2-chlorothiazol-5-yl)methyl]-2-[2-(cyclopropylmethoxy)-2-oxoacetyl]imidazo[1,2-a]pyridin-4-ium-3-olate]",,100,,90,100,,"chromatographic logP ([5]; HPLC, reversed-phase column (C18), 43° C, acidic (HCOOH), read-out: log P (HCOOH)): 1.94"
"CO/N=C/C(=O)c1c([O-])[n+]2ccccc2n1Cc1cnc(Cl)s1 [Example I-059, 1-[(2-chlorothiazol-5-yl)methyl]-2-[(2E)-2-methoxyiminoacetyl]imidazo[1,2-a]pyridin-4-ium-3-olate]",,100,100,70,,,chromatographic logP [5]: 1.45
"O=Cc1c([O-])[n+]2ccccc2n1Cc1cnc(Cl)s1 [Example I-015, 1-[(2-Chlorothiazol-5-yl)methyl]-2-formylimidazo[1,2-a]pyridin-4-ium-3-olate]",,100,100,90,,,efficacy (Ctenocephalides felis [3]): 100%; chromatographic logP [5]: 1.01
"O=C(c1c([O-])[n+]2ccccc2n1Cc1cnc(Cl)s1)C(Cl)(Cl)Cl [Example I-011, 1-[(2-Chlorothiazol-5-yl)methyl]-2-(2,2,2-trichloroacetyl)imidazo[1,2-a]pyridin-4-ium-3-olate]",,100,100,90,,,efficacy (Spodoptera frugiperda): 100%; chromatographic logP [5]: 2.44
Cc1ccc[n+]2c([O-])c(C(=O)C(=O)OC3CCC3)n(Cc3cnc(Cl)s3)c12 [Example I-065],100,100,,90,,,
CC(=O)c1c([O-])[n+]2cccc(C)c2n1Cc1cnc(Cl)s1 [Example I-044],83,100,100,100,,,
O=C(OC1CCC1)C(=O)c1c([O-])[n+]2ccccc2n1Cc1cnc(Cl)s1 [Example I-035],,,,,100,100,efficacy (Myzus persicae [2]): 100%
CCNC(=O)c1c([O-])[n+]2ccccc2n1Cc1cnc(Cl)s1 [Example I-018],,,,,85,100,efficacy (kill in %) (Lucilia cuprina): 100%; efficacy (Diabrotica balteata): 100%; efficacy (Myzus persicae [1]; application rate 20 ppm): 100%; efficacy (Myzus persicae [2]): 100%
Cc1ccc[n+]2c([O-])c(C(=O)C(F)(F)C(F)(F)F)n(Cc3cnc(Cl)s3)c12 [Example I-062],100,100,,90,,,
O=C(c1ccccc1)c1c([O-])[n+]2ccccc2n1Cc1cnc(Cl)s1 [Example I-013],,,,,90,100,efficacy (Ctenocephalides felis [3]): 100%; efficacy (Diabrotica balteata): 80%; efficacy (Myzus persicae [1]; application rate 20 ppm): 100%; efficacy (Myzus persicae [2]): 100%
